# Read-outs that look alike come from different tables or passages of the source.
# Tests used:
# Experiment in all cases: cells
# [1] = test system: nuclear β-catenin in C2C12 cells; assay type: cell-based
# [2] = test system: HeLa cells; assay type: cell-based; details: HeLa, HeLa, read-out: CellCycle G2/M
# [3] = test system: NCI-H716 cells; assay type: cell-based, Human
# [4] = test system: SNU-C1; assay type: cell-based
# [5] = test system: DLD-1; assay type: cell-based
# [6] = test system: endothelial tube formation in co-cultures of ECFCs and ADSCs treated with VEGF; assay type: cell-based, human
# [7] = test system: INS-1E cells; assay type: cell-based, rat
# [8] = test system: SW480; assay type: cell-based
# [9] = test system: HT-29; assay type: cell-based
# [10] = test system: Colo320; assay type: cell-based
# [11] = test system: HCT116 cells treated with a GSK3β inhibitor; assay type: cell-based
# [12] = test system: RKO; assay type: cell-based; details: Homo sapiens, RKO
# [13] = test system: HCT116; assay type: cell-based
# [14] = Homo sapiens, S2 Table, 20 = no response at highest concentration
# [15] = Homo sapiens, NCI-H716; read-out: GLP1 sec. EC50
# [16] = Homo sapiens, SNU-C1, 72 h, Table 2, 72 h, Cell TiterGlo, non-adherent, 20 coded, read-out: SNU-C1 viab. IC50
# [17] = Homo sapiens, DLD-1, 72 h, Table 2, 72 h, Cell TiterGlo, non-adherent, 20 coded, read-out: DLD-1 viab. IC50
# [18] = Homo sapiens, DLD-1, basal, DLD-1, read-out: Basal_Viability ATP DLD-1
# [19] = Rattus norvegicus, INS-1E; read-out: Ins. sec. EC50
# [20] = Homo sapiens, SW480, read-out: Basal_Viability ATP SW480
# [21] = Homo sapiens, NCI-H716; read-out: GLP 1 Secretion
# [22] = Homo sapiens, basal, Colo 320, read-out: Basal_Viability ATP Colo 320
# [23] = Homo sapiens, HCT-116, HCT116 pretreated with GSK3b inhibitor, read-out: GSK3b inh pretreated_Viability ATP HCT116
# [24] = Homo sapiens, SNU-C1, read-out: Basal_Viability ATP SNU-C1
compound,measurement,setting,value
"CN(Cc1cnc2nc(N)nc(N)c2n1)c1ccc(C(=O)N[C@@H](CCC(=O)O)C(=O)O)cc1 [methotrexate, reference compound]",EC50,"[1]; Mus musculus, C2C12; read-out: Wnt Pathway",0.0116 µM
same,EC50,"[1]; Mus musculus, C2C12; read-out: Wnt pot. EC50",0.012 µM
same,EC50,[2]; [14],> 10 µM
same,EC50,[3]; [15],> 10 µM
same,IC50,[4]; [16],> 20 µM
same,IC50,[5]; [17],0.7 µM
same,IC50,[5]; [18],0.704 µM
same,IC50,"[6]; Homo sapiens, read-out: Anti-Angio IC50",> 10 µM
same,EC50,[7]; [19],> 10 µM
"CCC(C)(C)C(=O)O[C@H]1C[C@@H](C)C=C2C=C[C@H](C)[C@H](CC[C@@H]3C[C@@H](O)CC(=O)O3)[C@H]21 [simvastatin, reference compound]",IC50,"[8]; Homo sapiens, SW480, 72 h, Table 2, 72 h, Cell TiterGlo, non-adherent, 20 coded, read-out: SW480 viab. IC50",5.9 µM
same,IC50,[8]; [20],5.93 µM
same,EC50,"[1]; Mus musculus, C2C12, Table 2; C2C12; […]; 20 / 20.1 coded; read-out: Wnt pot. EC50",> 10 µM
same,EC50,[2]; [14],> 10 µM
same,IC50,"[9]; Homo sapiens, HT-29, Table 2, 72 h, Cell TiterGlo, non-adherent, 20 coded, read-out: HT-29 viab. IC50",> 20 µM
same,EC50,[3]; [21],3.29 µM
same,EC50,[3]; [15],3.3 µM
same,IC50,"[10]; Homo sapiens, COLO 320, Table 2, 72 h, Cell TiterGlo, non-adherent, 20 coded, read-out: Colo320 viab. IC50",4.9 µM
same,IC50,[10]; [22],4.94 µM
same,IC50,[4]; [16],> 20 µM
same,IC50,"[11]; Homo sapiens, HCT-116, read-out: HCT-116 (GSK3β) viab. IC50, Table 2, GSK3β inhibitor LY2090314 20 nM, 72 h, Cell TiterGlo, 20 coded",4.7 µM
same,IC50,[11]; [23],4.73 µM
same,IC50,[5]; [17],> 20 µM
same,IC50,"[12]; Table 2, 72 h, Cell TiterGlo, non-adherent, 20 coded, read-out: RKO viab. IC50",> 20 µM
same,IC50,"[13]; Homo sapiens, HCT-116, 72 h, read-out: HCT-116 viab. IC50, Table 2, basal, 72 h, Cell TiterGlo, non-adherent, 20 coded",> 20 µM
same,EC50,[7]; [19],> 10 µM
Cc1nc2ccccc2n1Cc1ccc(Cl)cc1 [1-P-chlorobenzyl-2-methylbenzimidazole],IC50,"[8]; basal, read-out: Basal_Viability ATP SW480",5.33 µM
same,EC50,[1]; IC50 / EC50; C2C12 beta-catenin translocation; read-out: Wnt Pathway,> 10 µM
same,EC50,[2]; IC50 / EC50,> 10 µM
same,IC50,"[9]; basal, read-out: Basal_Viability ATP HT-29",> 20 µM
same,EC50,[3]; IC50 / EC50; NCI-H716; read-out: GLP 1 Secretion,> 10 µM
same,IC50,"[10]; basal, read-out: Basal_Viability ATP Colo 320",15.2 µM
same,IC50,"[4]; basal, read-out: Basal_Viability ATP SNU-C1",> 20 µM
same,IC50,"[11]; GSK3b inhibitor pretreated, read-out: GSK3b inh pretreated_Viability ATP HCT116",12 µM
same,IC50,"[5]; basal, read-out: Basal_Viability ATP DLD-1",> 20 µM
same,IC50,"[13]; basal, read-out: Basal_Viability ATP HCT116",1.22 µM
same,IC50,"[6]; IC50 / EC50, endothelial tube area, ADSC/ECFC co-culture, read-out: Anti-Angiogenesis",7.38 µM
same,EC50,[7]; IC50 / EC50; INS-1E; read-out: Insulin Secretion,> 10 µM
CC(C)=CCNc1ncnc2c1ncn2[C@@H]1O[C@H](CO)[C@@H](O)[C@H]1O [Riboprine],EC50,"[1]; Mus musculus, C2C12, IC50 / EC50; C2C12 beta-catenin translocation; read-out: Wnt Pathway",> 10 µM
same,EC50,"[2]; Homo sapiens, IC50 / EC50",> 10 µM
same,IC50,"[9]; Homo sapiens, HT-29, read-out: Basal_Viability ATP HT-29",> 20 µM
same,EC50,[3]; Homo sapiens; IC50 / EC50; NCI-H716; read-out: GLP 1 Secretion,> 10 µM
same,IC50,[4]; [24],9.01 µM
same,IC50,"[6]; Homo sapiens, IC50 / EC50, endothelial tube area, ADSC/ECFC co-culture, read-out: Anti-Angiogenesis",2.66 µM
same,EC50,[7]; Rattus norvegicus; IC50 / EC50; INS-1E; read-out: Insulin Secretion,> 10 µM
Nc1nc(Cl)nc2c1ncn2[C@@H]1O[C@H](CO)[C@@H](O)[C@@H]1F [clofarabine],IC50,"[8]; Homo sapiens, SW480, basal, SW480, read-out: Basal_Viability ATP SW480",1.2 µM
same,EC50,"[1]; Mus musculus, C2C12, S2 Table; module primary assay; 20 / 20.1 codes per legend; read-out: Wnt Pathway",> 10 µM
same,EC50,[2]; [14],> 10 µM
same,IC50,"[9]; Homo sapiens, basal, HT-29, read-out: Basal_Viability ATP HT-29",> 20 µM
same,EC50,[3]; [21],> 10 µM
same,IC50,[10]; [22],> 20 µM
same,IC50,"[4]; Homo sapiens, SNU-C1, basal, SNU-C1, read-out: Basal_Viability ATP SNU-C1",> 20 µM
same,IC50,[11]; [23],0.001 µM
same,IC50,[5]; [18],0.164 µM
same,IC50,"[12]; basal, read-out: Basal_Viability ATP RKO",0.001 µM
same,IC50,"[13]; Homo sapiens, HCT-116, basal, HCT116, read-out: Basal_Viability ATP HCT116",0.001 µM
same,EC50,"[7]; Rattus norvegicus, INS-1E; read-out: Insulin Secretion",> 10 µM
COc1cc(NC(C)CCCN)c2ncccc2c1 (centres unmarked) [Primaquine],IC50,[8]; [20],> 20 µM
same,EC50,"[1]; Mus musculus, C2C12, read-out: Wnt Pathway",> 10 µM
same,EC50,[2]; Homo sapiens,> 10 µM
same,EC50,"[3]; Homo sapiens, NCI-H716, read-out: GLP 1 Secretion",> 10 µM
same,IC50,"[10]; Homo sapiens, COLO 320, read-out: Basal_Viability ATP Colo 320",> 20 µM
same,IC50,[4]; [24],> 20 µM
same,IC50,"[11]; Homo sapiens, HCT-116, read-out: GSK3b inh pretreated_Viability ATP HCT116",> 20 µM
same,IC50,"[5]; Homo sapiens, DLD-1, read-out: Basal_Viability ATP DLD-1",> 20 µM
same,IC50,[12]; read-out: Basal_Viability ATP RKO,> 20 µM
same,IC50,"[13]; Homo sapiens, HCT-116, read-out: Basal_Viability ATP HCT116",1.88 µM
same,IC50,"[6]; Homo sapiens, read-out: Anti-Angiogenesis",> 10 µM
same,EC50,"[7]; Rattus norvegicus, INS-1E, read-out: Insulin Secretion",> 10 µM
